# “And” between values parts separate entries of the source, which are not always exact repeats. Equal entries are not always repeated. “Also recorded” adds a separate entry of the source. Residues, ends and D or L forms follow the SMILES beside them.
# Key:
# BAKΔTM = target: T1, BAKΔTM (Homo sapiens, UniProt Q16611); test: SPR binding of BH3 peptides to immobilized BAKΔTM; details: for Kd: BAKΔTM immobilized on CM5 chip, steady-state analysis, three independent SPR assays, top concentrations not threefold above KD, read-out: Approximate dissociation constant ranges, KDs for BAK
# T1 construct: BAKΔTM (GenBank BC004431, residues 1–186); His6; made in house; host or cells: E. coli BL21
# T1 sequence (Q16611 1-186): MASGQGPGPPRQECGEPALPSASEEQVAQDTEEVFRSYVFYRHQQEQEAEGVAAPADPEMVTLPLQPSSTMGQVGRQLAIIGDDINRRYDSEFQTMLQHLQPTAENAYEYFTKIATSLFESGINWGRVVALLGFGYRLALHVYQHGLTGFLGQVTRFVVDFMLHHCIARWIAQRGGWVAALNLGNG
# BAKΔTM F161A = test: Liposome permeabilization assay with BAKΔTM F161A; format: biochemical, human; details: 50 nM BAKΔTM F161A vs WT, 50 nM BH3 peptide, three independent experiments
# Method: (§1) 1-Palmitoyl-2-oleoyl-sn-glycero-3-phosphocholine, 1-plamitoyl-2-oleoyl-sn-glycero-3-phosphoethanolamine, L-α-phosphatidyl-inositol, cardiolipin, cholesterol and 18:1 DGS-NTA(Ni) were mixed at a weight ratio of 36:22:9:8:20:5, and dried as thin films in glass test tubes under nitrogen for 16 h. To encapsulate FITC-labeled dextran 10 (F-d10), 50 mg F-d10 was added to 50 mg lipid in 1 ml of 150 KCl buffer containing 20 mM HEPES (pH 7.0), sonicated and extruded 15 times through a 400 nm polycarbonate membrane. Liposomes with F-d10 were further purified by gel filtration on Sephacryl S-300 HR (GE Healthcare). Phosphate was determined by colorimetric assay (Abcam, Cambridge, UK).
# (§2) Release of F-d10 from large unilamellar vesicles (LUVs) was monitored by fluorescence dequenching[25] using a fluorimetric plate reader (Thermo Scientific) with SoftMax Pro software. After addition of purified His6-BAKΔTM and/or the BH3 peptides to LUVs (final lipid concentration 10 µg ml^−1), 96 well plates were incubated at 37 °C and recorded (excitation 485 nm, emission 538 nm) every 10 sec. FITC-labeled dextran release was calculated using the equation ((Fsample − Fblank)/(FTriton − Fblank) × 100%), where Fsample, Fblank, and FTriton are the fluorescence recorded for the reagent-, buffer-, and 1% Triton-treated LUVs, respectively.
# [1] = system: Bak in mitochondria from Bax−/− MEFs; test: Cytochrome c release from mitochondria of Bax−/− MEFs; format: biochemical, mouse
# Method: (§3) Mitochondria[43] purified from Bax^−/− MEFs were incubated with the indicated concentrations of navitoclax, S63845 or BH3 peptides at 25 °C for 90 min. After centrifugation (10,000 g, 15 min) and washing, supernatants and pellets were analyzed by immunoblotting. Alternatively, His6-BAKΔTM was dialyzed against mitochondria (mito) buffer (150 mM KCl, 5 mM MgCl2, 1 mM EGTA, 25 mM HEPES, pH 7.5) and diluted into mito buffer with 5 mM DTT. Mitochondria purified from Bak^−/−Bax^−/− MEFs were then incubated with 2 μM His6-BAKΔTM and the indicated BH3 peptides (5 μM) at 25 °C for 90 min. After centrifugation (10,000 × g, 15 min) and washing, supernatants and pellets were analyzed by immunoblotting.
# human BAKΔTM = test: Cytochrome c release from mitochondria of Bak−/−Bax−/− MEFs plus purified human BAKΔTM; format: biochemical; details: 2 μM His6-BAKΔTM, 5 μM BH3 peptide, 25 °C, 90 min, immunoblotting
# Method: as §3
# BAK (His6-BAKΔTM) = test: Liposome permeabilization assay (FITC-dextran release) with BAK; format: biochemical, human; details: 50 nM BAK + 50 nM BH3 peptide
# Method: as §1, §2
# BAK G126S = details: SPR, about 4000 RU immobilized, series of peptide concentrations, three independent experiments
# Description: (§4) Plasmids encoding BAKΔTM (GenBank BC004431, residues 1–186) in pET29b(+) was kindly provided by Qian Liu and Kalle Gehring (McGill University, Montreal, Canada)[34]. Plasmids encoding BAK 15–186 and the corresponding BAK mutants were generated using site-directed mutagenesis. All plasmids were subjected to automated sequencing to verify the described alterations and confirm that no additional mutations were present.
# (§5) Proteins for SPR were further purified by FPLC on Superdex S200, concentrated in a centrifugal concentrator (Centricon, Millipore), dialyzed against Biacore buffer (10 mM 4-(2-hydroxyethyl)-1-piperazineethanesulfonic acid (HEPES; pH 7.4), 150 mM NaCl, 0.05 mM ethylenediaminetetraacetic acid (EDTA) and 0.005% (w/v) polysorbate 20) and stored at 4 °C for <48 h before use.
# (§6) BAKΔTM or mutants were immobilized on a CM5 chip using a Biacore T200 biosensor with a blank channel as a negative control. Binding assays were performed at 25 °C using Biacore buffer containing the indicated BH3 peptides injected at 30 µl per min for 1 min using a Biacore T200 Control Software. Proteins were allowed to dissociate during perfusion with Biacore buffer at 30 µl per min for 10 min and then desorbed with 2 M MgCl2. All binding affinities were derived by Biacore T200 Evaluation Software using Steady State analysis (Biacore, Uppsala, Sweden).
# BAK F161A = details: SPR, ~4000 RU immobilized, series of peptide concentrations, three independent experiments
# Description: as §4, §5, §6
# BAK H164A/H165A = details: SPR, ~4000 RU immobilized, series of peptide concentrations, three independent experiments
# Description: as §4, §5, §6
# BAK F93E = details: SPR, about 4000 RU immobilized, series of peptide concentrations, three independent experiments
# Description: as §4, §5, §6
# [2] = 90 min at 25 °C, immunoblotting of supernatants and pellets
smiles,measurement,setting,value
"CC[C@H](C)[C@H](NC(=O)[C@H](CCC(=O)O)NC(=O)[C@H](CCCNC(=N)N)NC(=O)[C@H](C)NC(=O)[C@H](Cc1c[nH]c2ccccc12)NC(=O)[C@@H](N)CCC(N)=O)C(=O)NCC(=O)N[C@@H](C)C(=O)N[C@@H](CCC(N)=O)C(=O)N[C@@H](CC(C)C)C(=O)N[C@@H](CCCNC(=N)N)C(=O)N[C@@H](CCCNC(=N)N)C(=O)N[C@@H](CCSC)C(=O)N[C@@H](C)C(=O)N[C@@H](CC(=O)O)C(=O)N[C@@H](CC(=O)O)C(=O)N[C@@H](CC(C)C)C(=O)N[C@@H](CC(N)=O)C(=O)N[C@@H](C)C(=O)N[C@@H](CCC(N)=O)C(=O)N[C@@H](Cc1ccc(O)cc1)C(=O)N[C@@H](CCC(=O)O)C(=O)N[C@@H](CCCNC(=N)N)C(=O)N[C@@H](CCCNC(=N)N)C(=O)N[C@@H](CCCNC(=N)N)C(=O)N[C@@H](CCC(N)=O)C(=O)O [PUMA BH3, reference compound]",Kd,"BAKΔTM; SPR, 25 °C",2000 to 2800 nM
same,Effect of F161A mutation on BAK-mediated liposome permeabilization initiated by the peptide,BAKΔTM F161A,did not affect
CC[C@H](C)[C@H](NC(=O)[C@H](CS)NC(=O)[C@H](C)NC(=O)[C@H](CC(C)C)NC(=O)[C@H](CCCNC(=N)N)NC(=O)[C@H](CC(C)C)NC(=O)[C@H](C)NC(=O)[C@H](CC(C)C)NC(=O)[C@H](C)NC(=O)[C@H](CC(=O)O)NC(=O)[C@H](CO)NC(=O)CNC(=O)[C@@H](N)CCC(=O)O)C(=O)NCC(=O)N[C@@H](CC(=O)O)C(=O)N[C@@H](CCC(=O)O)C(=O)N[C@@H](CCSC)C(=O)N[C@@H](CC(=O)O)C(=O)N[C@H](C(=O)N[C@@H](CO)C(=O)N[C@@H](CC(C)C)C(=O)N[C@@H](CCCNC(=N)N)C(=O)N[C@@H](C)C(=O)N1CCC[C@H]1C(=O)N[C@@H](CCCNC(=N)N)C(=O)O)C(C)C [BIK BH3] (H-EGSDALALRLACIGDEMDVSLRAPR-OH; N-terminus and C-terminus assumed),Kd,"BAKΔTM; SPR, 25 °C",> 10000 nM
same,"Binding to BAKΔTM by SPR, in words","BAKΔTM; SPR, immobilized BAKΔTM, 25 °C",did not detect interactions; also recorded: undetectable
same,Concentration that induced cytochrome c release,"[1]; 90 min at 25 °C, immunoblotting of supernatants and pellets, 10 μM highest concentration tested",10 µM
same,Fold less active than the HRK BH3 peptide in cytochrome c release,"[1]; MCL1 inhibitor S63845 added together with peptide, response to reviewers",about 10 fold
same,"Cytochrome c release, in words",human BAKΔTM,barely induced cytochrome c release
same,"Increase of BAK-mediated liposome release, in words",BAK (His6-BAKΔTM),did not appreciably increase
CC1(C)CCC(c2ccc(Cl)cc2)=C(CN2CCN(c3ccc(C(=O)NS(=O)(=O)c4ccc(N[C@H](CCN5CCOCC5)CSc5ccccc5)c(S(=O)(=O)C(F)(F)F)c4)cc3)CC2)C1 [navitoclax],"Cytochrome c release, in words",[1]; [2],failed to induce cytochrome c release
same,Effect on BIK or HRK BH3-induced cytochrome c release,[1]; navitoclax applied along with BIK BH3 or HRK BH3,did not enhance
CC[C@H](C)[C@H](NC(=O)[C@H](CS)NC(=O)[C@H](CCC(N)=O)NC(=O)[C@H](CC(C)C)NC(=O)[C@H](CCCCN)NC(=O)[C@H](CCCNC(=N)N)NC(=O)[C@H](C)NC(=O)[C@@H](NC(=O)[C@H](CCC(N)=O)NC(=O)[C@@H](NC(=O)[C@H](CCC(=O)O)NC(=O)[C@H](C)NC(=O)[C@@H](N)CCC(N)=O)C(C)C)[C@@H](C)CC)C(=O)N[C@@H](C)C(=O)N[C@@H](CC(=O)O)C(=O)N[C@@H](CCC(N)=O)C(=O)N[C@@H](Cc1ccccc1)C(=O)N[C@@H](Cc1c[nH]cn1)C(=O)N[C@@H](CCCNC(=N)N)C(=O)N[C@@H](CC(C)C)C(=O)N[C@@H](Cc1c[nH]cn1)C(=O)N[C@H](C(=O)N[C@@H](CCC(N)=O)C(=O)N[C@@H](CCC(N)=O)C(=O)N[C@@H](Cc1c[nH]cn1)C(=O)N[C@@H](CCC(N)=O)C(=O)O)C(C)C [BMF BH3] (H-QAEVQIARKLQCIADQFHRLHVQQHQ-OH; N-terminus and C-terminus assumed),Kd,"BAKΔTM; SPR, 25 °C",400 to 600 nM and < 1000 nM
same,"Association and dissociation, direct comparison of SPR curves","BAKΔTM; peptides at 1600 nM, immobilized BAKΔTM",fastest association with BAKΔTM and slowest dissociation
same,Effect of BAK G126S mutation on peptide binding (maximum RU) vs WT BAKΔTM,BAK G126S,did not appreciably affect binding
same,Effect of BAK F161A mutation on peptide binding (maximum RU) vs WT BAKΔTM,BAK F161A,diminished binding
same,Effect of BAK H164A/H165A mutation on peptide binding (maximum RU) vs WT BAKΔTM,BAK H164A/H165A,diminished binding
same,Effect of BAK F93E mutation on peptide binding (maximum RU) vs WT BAKΔTM,BAK F93E,did not appreciably affect binding
same,"Cytochrome c release, in words",human BAKΔTM,intermediate amount
same,Effect of F161A mutation on BAK-mediated liposome permeabilization initiated by the peptide,BAKΔTM F161A,markedly decreased
same,BAK-dependent release of liposome contents (FITC-dextran release),"BAK (His6-BAKΔTM); 37 °C, fluorescence dequenching, BAK alone 28%, mean of three independent experiments",46%
Cc1c(-c2c(-c3ccc(F)o3)sc3ncnc(O[C@H](Cc4ccccc4OCc4ccnn4CC(F)(F)F)C(=O)O)c23)ccc(OCCN2CCN(C)CC2)c1Cl [S63845],"Cytochrome c release, in words",[1]; [2],failed to induce cytochrome c release

# Source: PMC7335050, “Characterization of an alternative BAK-binding site for BH3 peptides” (Nature Communications, 2020)
